Measurements as given in paper PMC8253220, “Molecular design, synthesis and in vitro biological evaluation of thienopyrimidine–hydroxamic acids as chimeric kinase HDAC inhibitors: a challenging approach to combat cancer” (Journal of Enzyme Inhibition and Medicinal Chemistry, 2021).
Several values for one entry are separate records, joined by “and”; a condition that tells them apart may be missing. Equal entries are not always repeated.

Tests used:
[1] = tested on: Hela nuclear extracts; experiment: Hela nuclear extract HDAC inhibitor assay (BPS Bioscience); format: biochemical; settings: 10 µM
Experimental: The purpose of the study is to determine the effects of twenty compounds from Misr International University on the enzymatic activities of hela nuclear extracts using an in vitro […]
7a Solution 10mM DMSO 10 10 % DMSO in
7b Solution 10mM DMSO 10 10 % DMSO in
7d Solution 10mM DMSO 10 10 % DMSO in
2.3 Experimental Conditions
2.3.1 Enzymes and Substrates
Assay Catalog # Substrate
Hela Nuclear Exctract 50053 10 µM HDAC Substrate 3
For the hela nuclear extracts, hela cells were grown to 90 % confluency. Hela nuclear extracts were prepared from the Nuclear Extraction Kit from abcam (Catalog # ab113474). The final total protein concentration was calculated to be 2.4 µg/µl. From this, the hela nuclear extracts was diluted 20-fold in HDAC assay buffer and 5 µl of the dilution was added to a 50 µl reaction.
The compounds are dissolved in DMSO. A series of dilutions of the compounds were prepared with 10% DMSO in HDAC assay buffer and 5 µl of the dilution was added to a 50 µl reaction so that the final concentration of DMSO is 1 % in all of […]
The enzymatic reactions for the hela nuclear extract were conducted in duplicate at 37 °C for 60 minutes in a 50 µl mixture containing HDAC assay buffer, 5 µg BSA, an HDAC substrate (see 2.3.1), hela nuclear extract, and a test compound (see 2.2).
After enzymatic reactions, 50μl of 2 x HDAC Developer was added to each well for the hela nuclear extract and the plate was incubated at room temperature for an additional 15 […]
Fluorescence intensity was measured at an excitation of 360 nm and an emission of 460 nm using a Tecan Infinite M1000 microplate reader.
Hela nuclear extract activity assays were performed in duplicates at each concentration.
The fluorescent intensity data were analyzed using the computer software, Graphpad Prism. In the absence of the compound, the fluorescent intensity (Ft) in each data set was defined as 100% activity. In the absence of hela nuclear extract, the fluorescent intensity (Fb) in each data set was defined as 0% activity. The percent activity in the presence of each compound was calculated according to the following equation: %activity = (F-Fb)/(Ft-Fb), where F= the fluorescent intensity in the presence of the compound.
The values of percentage activity were plotted on a bar graph.

[2] = tested on: A549/ATCC; experiment: NCI one-dose screen; format: cell-based, human; settings: NSCLC A549/ATCC, 10 µM single dose
Experimental: (§1) All of the synthesised structures were selected and submitted to NCI based on computer modelling techniques and the degree of diversity of structures for the evaluation of their antiproliferative activity. The 20 synthesised compounds were selected with their respective NCI codes [NCS D-820157- NCS D-820176] for the inhibition percent assay at an initial single dose of 10 μM on the full NCI 60 cell panel, where the mean graph of the percent growth for all compounds on the full NCI cell panel is evaluated, compared to the untreated control cells (Supplementary Material). In vitro cell line inhibition % of all synthesised compounds is represented in (Table 1 of Supplementary Material).
(§2) All of the synthesised compounds (20) were submitted to NCI and selected for in vitro anticancer assay against a panel of 60 cancer cell lines. The methodology of assay and calculations is as reported.

[3] = tested on: CAKI-1; experiment: NCI one-dose screen; format: cell-based, human; settings: Renal CAKI-1, 10 µM single dose
Experimental: as §1, §2

[4] = tested on: HCT-116; experiment: NCI one-dose screen; format: cell-based, human; settings: Colon HCT-116, 10 µM single dose
Experimental: as §1, §2

[5] = tested on: HL-60(TB); experiment: NCI one-dose screen; format: cell-based, human; settings: Leukemia HL-60(TB), 10 µM single dose
Experimental: as §1, §2

[6] = tested on: HS 578T; experiment: NCI one-dose screen; format: cell-based, human; settings: Breast HS 578T, 10 µM single dose
Experimental: as §1, §2

[7] = tested on: HT29; experiment: NCI one-dose screen; format: cell-based, human; settings: Colon HT29, 10 µM single dose
Experimental: as §1, §2

[8] = tested on: KM12; experiment: NCI one-dose screen; format: cell-based, human; settings: Colon KM12, 10 µM single dose
Experimental: as §1, §2

[9] = tested on: M14; experiment: NCI one-dose screen; format: cell-based, human; settings: Melanoma M14, 10 µM single dose
Experimental: as §1, §2

[10] = tested on: MDA-MB-435; experiment: NCI one-dose screen; format: cell-based, human; settings: Melanoma MDA-MB-435, 10 µM single dose
Experimental: as §1, §2

[11] = tested on: MOLT-4; experiment: NCI one-dose screen; format: cell-based, human; settings: Leukemia MOLT-4, 10 µM single dose
Experimental: as §1, §2

[12] = tested on: NCI-H322M; experiment: NCI one-dose screen; format: cell-based, human; settings: NSCLC NCI-H322M, 10 µM single dose
Experimental: as §1, §2

[13] = tested on: NCI-H460; experiment: NCI one-dose screen; format: cell-based, human; settings: NSCLC NCI-H460, 10 µM single dose
Experimental: as §1, §2

[14] = tested on: NCI/ADR-RES; experiment: NCI one-dose screen; format: cell-based, human; settings: Ovarian NCI/ADR-RES, 10 µM single dose
Experimental: as §1, §2

[15] = tested on: RPMI-8226; experiment: NCI one-dose screen; format: cell-based, human; settings: Leukemia RPMI-8226, 10 µM single dose
Experimental: as §1, §2

[16] = tested on: SF-295; experiment: NCI one-dose screen; format: cell-based, human; settings: CNS SF-295, 10 µM single dose
Experimental: as §1, §2

[17] = tested on: SF-539; experiment: NCI one-dose screen; format: cell-based, human; settings: for Growth Percent: CNS SF-539, 10 µM single dose
Experimental: as §1, §2

[18] = tested on: SK-MEL-2; experiment: NCI one-dose screen; format: cell-based, human; settings: Melanoma SK-MEL-2, 10 µM single dose
Experimental: as §1, §2

[19] = tested on: SK-OV-3; experiment: NCI one-dose screen; format: cell-based, human; settings: Ovarian SK-OV-3, 10 µM single dose
Experimental: as §1, §2

[20] = tested on: SNB-19; experiment: NCI one-dose screen; format: cell-based, human; settings: CNS SNB-19, 10 µM single dose
Experimental: as §1, §2

[21] = tested on: SR; experiment: NCI one-dose screen; format: cell-based, human; settings: Leukemia SR, 10 µM single dose
Experimental: as §1, §2

[22] = tested on: T-47D; experiment: NCI one-dose screen; format: cell-based, human; settings: Breast T-47D, 10 µM single dose
Experimental: as §1, §2

[23] = tested on: UACC-257; experiment: NCI one-dose screen; format: cell-based, human; settings: Melanoma UACC-257, 10 µM single dose
Experimental: as §1, §2

[24] = tested on: UACC-62; experiment: NCI one-dose screen; format: cell-based, human; settings: Melanoma UACC-62, 10 µM single dose
Experimental: as §1, §2

[25] = tested on: UO-31; experiment: NCI one-dose screen; format: cell-based, human; settings: for Growth Percent: Renal UO-31, 10 µM single dose
Experimental: as §1, §2

SMILES	% Inhibition Hela Nuclear Extracts [1]	Growth Percent [2]	Growth Percent [3]	Growth Percent [4]	Growth Percent [5]	Growth Percent [6]	Growth Percent [7]	Growth Percent [8]	Growth Percent [9]	Growth Percent [10]	Growth Percent [11]	Growth Percent [12]	Growth Percent [13]	Growth Percent [14]	Growth Percent [15]	Growth Percent [16]	Growth Percent [17]	Growth Percent [18]	Growth Percent [19]	Growth Percent [20]	further results
Cc1c(C(=O)NCCCC(=O)NO)sc2ncnc(Nc3ccc(F)c(Cl)c3)c12 [Compound 20d, 4–(3-chloro-4-fluorophenylamino)-N-(4-(hydroxyamino)-4-oxobutyl)-5-methylthieno[2,3-d]pyrimidine-6-carboxamide]	0%	94.0% and 94.08%	92.1% and 92.19%	105.9% and 105.97%	104.6% and 104.62%	99.9% and 99.99%	107.1% and 107.13%	101.5% and 101.54%	102.6%	101.6% and 101.67%	109.8% and 109.84%	105.2% and 105.25%	101.8% and 101.82%	104.1% and 104.13%	108.7% and 108.75%	101.9%	100.8% and 100.82%	113.2% and 113.22%	122.6% and 122.66%	98.1% and 98.16%	Growth Percent [21]: 110.0% and 110.02%; Growth Percent [22]: 112.6% and 112.64%; Growth Percent [23]: 103%; Growth Percent [24]: 93.7% and 93.74%; inhibition at 10 µM ([25]; Homo sapiens, renal UO-31, 10 μM): 23.7%; Growth Percent [25]: 76.3% and 76.32%
Cc1c(C(=O)NCCCC(=O)NO)sc2ncnc(Nc3ccc(NC(=O)Nc4cccc(C(F)(F)F)c4)cc3)c12 [Compound 12c, 1–(4-(6-((4-(hydroxyamino)-4-oxobutyl)carbamoyl)-5-methylthieno[2,3-d]pyrimidin-4-ylamino)phenyl)-3–(3-(trifluoromethyl)phenyl)urea]	7%	107.3% and 107.34%	100.6% and 100.67%	107.2% and 107.24%	104.7% and 104.71%	93.9% and 93.91%	104.0% and 104.09%	102.1% and 102.13%	107.2% and 107.23%	101.5% and 101.59%	102.4% and 102.48%	105.0% and 105.06%	101.9% and 101.92%	99.2% and 99.22%	104.0% and 104.09%	93.7% and 93.78%	71.5% and 71.52%	107.8% and 107.86%	113.9% and 113.94%	96.8% and 96.88%	inhibition at 10 µM ([17]; Homo sapiens, CNS SF-539, 10 μM): 28.5%; Growth Percent [21]: 103.3% and 103.37%; Growth Percent [22]: 109.7% and 109.79%; Growth Percent [23]: 107.0%; Growth Percent [24]: 98.5% and 98.59%; Growth Percent [25]: 89.6% and 89.64%
Cc1c(C(=O)NCCCC(=O)NO)sc2ncnc(Nc3ccccc3)c12 [Compound 20b, N-(4-(hydroxyamino)-4-oxobutyl)-5-methyl-4-(phenylamino)thieno[2,3-d]pyrimidine-6-carboxamide]	21%	98.8% and 98.87%	96.9% and 96.93%	104.9% and 104.93%	104.1% and 104.16%	102.2% and 102.24%	102.3% and 102.36%	101.4% and 101.41%	112.3% and 112.35%	103.3% and 103.32%	109.4% and 109.45%	107.3% and 107.33%	99.4% and 99.46%	100.6% and 100.67%	102.2%	90.6% and 90.64%	96.9% and 96.91%	102.9%	125.1% and 125.12%	97.5% and 97.59%	Growth Percent [21]: 99.2% and 99.22%; Growth Percent [22]: 104.4% and 104.47%; Growth Percent [23]: 103.9% and 103.93%; Growth Percent [24]: 96.8% and 96.85%; Growth Percent [25]: 88.2% and 88.29%
Cc1c(C(=O)NCCCC(=O)NO)sc2ncnc(Nc3ccc(Cl)cc3)c12 [Compound 20c, 4–(4-chlorophenylamino)-N-(4-(hydroxyamino)-4-oxobutyl)-5-methylthieno[2,3-d]pyrimidine-6-carboxamide]	3%	104.4% and 104.46%	93.0% and 93.08%	108.2% and 108.21%	103.4% and 103.41%	99.4% and 99.45%	108.2% and 108.21%	101.7% and 101.78%	107.6% and 107.62%	103.8% and 103.83%	108.7% and 108.77%	101.3% and 101.35%	101.9% and 101.95%	100.5% and 100.58%	103.6% and 103.64%	101.19%	95.3% and 95.36%	106.2% and 106.25%	112.9% and 112.92%	99.1% and 99.11%	Growth Percent [21]: 102.6% and 102.62%; Growth Percent [22]: 105.2% and 105.24%; Growth Percent [23]: 112.8% and 112.86%; Growth Percent [24]: 98.8% and 98.83%; Growth Percent [25]: 81.5% and 81.51%
